Consider five compounds from patent publication US8729134B2, “Aryl di-substituted propenone compounds” (Heartlink Limited, priority 2008, dated 2014).

≈ marks a conversion by molar mass, not a printed value. Entries after “also recorded” stand apart in the source; their conditions may differ. Where two headings read alike, the source gives them in different places.

Data set [1] concerns B16-F1 cells (murine melanoma). Description: MTT cell viability assay, B16-F1 cells. The class given is cell-based. Conditions: Mus musculus, 96 hours incubation, read-out: IC 50, inhibition of B16-F1 cells. As for the experimental part:
(§1) Cell viability was tested using the MTT assay (Amersham). The MTT [3-(4,5-dimethylthiazol-2-yl)-2,5-diphenyltetrazolium bromide] assay, was first described by Mosmann in 1983, (J Immunol Methods. 1983 Dec. 16; 65(1-2):55-63). The assay is based on the ability of a mitochondrial dehydrogenase enzyme from viable cells to cleave the tetrazolium rings of the pale yellow MTT and form a dark blue formazan crystals which is largely impermeable to cell membranes, thus resulting in accumulation within healthy cells. Solubilisation of the cells by the addition of a detergent results in the liberation of the crystals which are then solubilized. The number of surviving cells is directly proportional to the level of the formazan product created. The colour can then be quantified using a simple colorimetric assay. The results can be read on a multi-well scanning spectrophotometer (ELISA reader).
(§2) Cells were plated at predetermined densities in 96 well plates. These were then incubated for 24 hours at 37° C. with 5%; CO2. Growth medium was then removed and replaced with 100 μl of growth medium containing various dilutions of test reagents or appropriate controls.
(§3) Plates were then incubated for a either 48 or 96 hours.
(§4) MTT reagent was then added to each well. The plates were then incubated in a 37° C./5% CO2 incubator. Detergent reagent was then added to each well. […] The absorbance was read at 570 nm. […]
In general terms: Tetrazolium assays rely on reduction of a dye to a coloured formazan, in cell work by metabolically active cells.

Data set [2] deals with MDA-MB-435 cells (human mammary ductal carcinoma). Description: MTT cell viability assay, MDA-MB-435 cells. Conditions: 48 hours incubation, read-out: IC50, inhibition of MDA-MB-435 cell line. The format is cell-based. Here is the method: (§5) Compounds II-IV were compared with genistein to test the cell viability of MCF-7 cells (human, mammary, adenocarcinoma cell line) and MDA-MB-435 cells (human mammary ductal carcinoma).
as §1, §2, §3
(§6) MTT reagent was then added to each well. The plates were then incubated in a 37° C./5% CO2 incubator. Detergent reagent was then added to each well. The plates were incubated overnight at 37° C./5% CO2. The absorbance was read at 570 nm.

Data set [3] has as its system MCF-7 cells (human, mammary, adenocarcinoma cell line). As to the kind of experiment: MTT cell viability assay, MCF-7 cells. The class given is cell-based. Conditions: MCF7, 48 hours incubation, read-out: IC50, inhibition of MCF7 cells. As for the experimental part: as §5, §1, §2, §3, §6
The subject of data set [4] is AB1 cells (murine myeloma). As to the kind of experiment: MTT cell viability assay, AB1 cells. The class given is cell-based. As to conditions: Mus musculus, 96 hours incubation, read-out: IC 50, inhibition of AB1 cells. As for the experimental part: as §1, §2, §3, §4
The subject of data set [5] is DU-145 cells (human prostate carcinoma). Description: MTT cell viability assay, DU-145 cells. Conditions: 48 hours incubation. The class given is cell-based. Here is the method:
as §1, §2, §3, §6
(§7) Compounds II-IV were compared with genistein to test the cell viability of LNCaP, PC3 and DU-145 cell lines (human prostate carcinoma).

Data set [6] deals with C-33A (cervical carcinoma) cells. As to the kind of experiment: MTT cell viability assay, C-33A cells. Conditions: Homo sapiens, 48 hours incubation, read-out: IC 50, inhibition of C-33A cells. The format is cell-based. Here is the method: as §1, §2, §3, §6
(§8) Also, Compounds II-IV were compared with genistein to test the cell viability of SK-OV-3 (ovarian adenocarcinoma), OVCAR-3 (ovarian adenocarcinoma), and C-33A (cervical carcinoma) cell lines.

Data set [7] has as its system JAM (ovarian carcinoma) cells. Description: MTT cell viability assay, JAM cells. The format is cell-based. Conditions: for IC50: Ovarian carcinoma cell, 96 hours incubation, read-out: IC 50, inhibition of JAM cells. Here is the method:
as §1, §2, §3, §6
Compound IV was compared with genistein to test the cell viability of JAM (ovarian carcinoma) and HELA (human cervical carcinoma) cell lines.

Data set [8] deals with LNCaP cells (human prostate carcinoma). Description: MTT cell viability assay, LNCaP cells. The class given is cell-based. Conditions: 48 hours incubation. As for the experimental part: as §1, §2, §3, §6, §7
The test system of data set [9] is PC3 cells (human prostate carcinoma). Description: MTT cell viability assay, PC3 cells. The format is cell-based. Conditions: PC-3, read-out: IC 50, inhibition in PC3 cells. Here is the method: as §1, §2, §3, §6, §7
Data set [10] deals with SK-OV-3 (ovarian adenocarcinoma) cells. As to the kind of experiment: MTT cell viability assay, SK-OV-3 cells. The class given is cell-based. Conditions: Homo sapiens, read-out: IC 50, inhibition in SK-OV-3 cells. As for the experimental part: as §1, §2, §3, §6, §8
Data set [11] can be described thus: Tolerability in the xenograft mouse model. The class given is in vivo. As to conditions: doses of 50, 25 and 10 mg/kg intraperitoneally for 14 days. As for the experimental part:
(§9) Female athymic mice (54) were implanted subcutaneously in the right hind flank with human DU145 prostate tumour cells (5×10^6). Tumour formation and growth were monitored until the tumours reached an average 25 mm^2 area (5 mm×5 mm). Mice were randomised into groups based upon tumour area (mean tumour area in individual groups ranged from 22 mm^2-33 mm^2). Compositions of Compounds II and III were prepared in a solution of 5% DMSO, 10% Tween 80 in PBS and administered intraperitoneally in a volume of 100 μl at doses of 50, 25, and 10 mg/kg to individual eight week old female Balb/c mice for 14 days. Vehicle control was 5% DMSO, 10% Tween 80 in PBS.

In data set [12] the test system is SK-MEL-28 (human malignant melanoma) cell line. Description: MTT cell viability assay, SK-MEL-28 cells. The format is cell-based. As to conditions: read-out: IC 50, inhibition in SK-MEL-28 cells. Here is the method: as §1, §2, §3, §6
Compounds II, III and IV were compared with genistein to test the cell viability of SK-MEL-28 (human malignant melanoma) cell line.

In data set [13] the test system is OVCAR-3 (ovarian adenocarcinoma) cells. As to the kind of experiment: MTT cell viability assay, OVCAR-3 cells. The class given is cell-based. Conditions: Homo sapiens, read-out: IC 50, inhibition in OVCAR-3 cells. As for the experimental part: as §1, §2, §3, §6, §8
Data set [14] concerns human DU145 prostate tumour cells (xenograft). As to the kind of experiment: Anti-tumour efficacy in DU145 xenograft mouse model. The format is in vivo, mice. As for the experimental part: The cell lines were cultured and prepared for inoculation according to standard protocols.
as §9

Data set [15] concerns HELA (human cervical carcinoma) cells. Description: MTT cell viability assay, HELA cells. The format is cell-based. Conditions: 96 hour incubation, read-out: IC 50, inhibition of HELA cells. Here is the method: as §1, §2, §3, §4
The mark [16] stands for this setting: read-out: IC 50, inhibition of DU-145 cells.
The mark [17] stands for this setting: read-out: IC 50, inhibition of LNCaP cells.

Turning to `O=c1c(-c2ccc(O)cc2)coc2cc(O)cc(O)c12` [genistein, reference compound], the IC50 in [1] is 4.5 µg/mL (≈ 16.7 µM); in data set [2], > 100 µM; in data set [3], 79.4 µM; in data set [4], 1.1 µg/mL (≈ 4.07 µM); in data set [5] (setting [16]) it was 78.9 µM; in data set [6], 41.9 µM. Besides, the IC50 in data set [7] amounted to 9.7 µg/mL (≈ 35.9 µM); in data set [8] (genistein, read-out: IC, inhibition of LNCaP cells), 59.5 µM.

As to `C=C(C(=O)c1cc(OC)c(OC)cc1OC)c1ccc(OC)c(OC)c1` [Compound III, 1-(2,4,5-trimethoxyphenyl)-2-(3,4-dimethoxyphenyl)prop-2-en-1-one], the IC50 is 8.6 µM in data set [9]; 33.1 µM in data set [10]; 3.8 µM in data set [2]; 3 µM in data set [3]; 15 µM in data set [5] (setting [16]); 3.1 µM in data set [6]. For the same compound, the IC50 in [12] was 5.5 µM; in data set [8] (setting [17]), 5 µM; in data set [13] it was 11.7 µM. The “tolerability / toxicity in the animals” value in data set [11] is “neither compound resulted in unacceptable toxicity”.

For `C=C(C(=O)c1ccc(OC)c(OC)c1OC)c1ccc(OC)cc1` [Compound II, 1-(2,3,4-trimethoxyphenyl)-2-(4-methoxyphenyl)prop-2-en-1-one], the IC50 in data set [9] worked out at 2.7 µM; in [10], 21.5 µM; in data set [2] it was 0.6 µM; in data set [3], 2.2 µM; in data set [5] (setting [16]), 4.8 µM; in [6], 1.8 µM. Besides, the IC50 in [12] was 3.5 µM; in data set [8] (setting [17]), 2.3 µM; in data set [13], 3.3 µM. Moreover, in data set [14] (10 mg/kg intraperitoneally for 14 days, at the completion of treatment), the “reduction mean tumour growth relative to the control group” value is recorded as 42%. In addition, the “statistical significance of tumour growth inhibition” value in data set [14] (25 mg/kg and 10 mg/kg treatment groups, t-test P<0.05) is “statistically significant”. Further, the “tumour growth relative to control animals treated with vehicle alone (in words)” value in data set [14] (50, 25, 10 mg/kg intraperitoneally, 14 days) is on record as “caused delay in the growth of DU-145 tumours; also recorded: clearly inhibited tumour growth”. Further, in data set [14] (DU145 xenograft, 50, 25, 10 mg/kg), the “anti-tumour effect, comparison between Compounds II and III” value is “has the most anti-tumour effect; also recorded: superior anti-tumour effect in comparison with Compound III”. For the same compound, the “tumour size following the cessation of treatment” value in data set [14] (after the 14 day treatment, entire study period) is recorded as “tumours remained smaller”. For the same compound, in data set [11], the “tolerability / toxicity in the animals” value is “better tolerated by the animals than Compound III; also recorded: neither compound resulted in unacceptable toxicity”.

Take `C=C(C(=O)c1ccc(OC)cc1OC)c1ccc(OC)c(OC)c1` [Compound IV, 1-(2,4-dimethoxyphenyl)-2-(3,4-dimethoxyphenyl)prop-2-en-1-one]: the IC50 came to 8.7 µM in [9]; 1.6 µg/mL (≈ 4.87 µM) in [1]; 27.4 µM in data set [10]; 6.8 µM in [2]; 6.8 µM in data set [3]; 1.1 µg/mL (≈ 3.35 µM) in [4]. For the same compound, the IC50 in [5] (read-out: IC 50, inhibition of DU-145 cells (unit inferred)) worked out at 10.7 µM; in data set [6], 2.4 µM; in data set [12], 3.5 µM; in data set [8] (setting [17]), 6.1 µM; in [13], 16.9 µM. The “cytotoxic potency compared with genistein” value in data set [7] (JAM and HELA cell lines) was “more potent as a cytotoxic agent than genistein”.

In the case of `COc1ccc(C(=O)Cc2ccc(OC)c(OC)c2)c(OC)c1` [Compound V, 1-(2,4-dimethoxyphenyl)-2-(3,4-dimethoxyphenyl)ethanone], the results for the IC50 in data set [7] and in [15] were 0.9 µg/mL (≈ 2.84 µM) and 3 µg/mL (≈ 9.48 µM), respectively.
